The source of these data is US9624218B2 (Eli Lilly and Company, priority 2014, dated 2017).

For one test, the system named is Capan-2 cells. Nature of the test: cells. The settings on record: Homo sapiens, read-out: % Inhibition of Colony Formation.
Test [1] has as its system Wnt-inducible genes (TCF/LEF luciferase reporter in DLD-1 TOPFlash cells). As to the kind of experiment: cells. The settings on record: Homo sapiens, DLD-1, 24 h, read-out: Wnt-inducible gene expression inhibition IC50, DLD-1 TOPFlash cells, 24 hours; Mean ± SEM.
For test [2], the system named is C57BL/6J-Apc^Min/J strain mice. Nature of the test: In vivo antitumor activity, intestinal polyps. The settings on record: 25 mg/kg BID, 60 consecutive days, small intestine. The text has this:
C57BL/6J-Apc^Min/J strain mice carry a truncating mutation at codon 850 of the Apc gene and develop intestinal polyps and colorectal neoplasms at the age of 3-6 months. Truncation in the APC gene leads to activation of the Wnt signaling pathway and elevated levels of β catenin are frequently detected in pre-neoplastic/neoplastic lesions in these mice.
At the end of the treatment period, the animals are sacrificed and the number of polyps in the small intestine is counted under a dissection microscope.

Another test deals with A549 cells. As to the kind of experiment: cells. The conditions noted are these: Homo sapiens, read-out: % Inhibition of Colony Formation.
Test [3] has as its system EGFP-Axin2 fusion protein. The conditions noted are these: read-out: Axin2 Stabilization EC50; HEK293 EGFP-Axin2 cells, 24 hours; Mean ± SEM.
A further test relates to Panc 04.03 cells. The conditions noted are these: 11 days.
The next test has as its system HPAF-II cells. Nature of the test: cells. The conditions noted are these: Homo sapiens, read-out: % Inhibition of Colony Formation.
In the next test the target is hTNKS1 (Homo sapiens (Human), UniProt O95271). Nature of the test: hTNKS1 enzyme activity ELISA (poly ADP ribose incorporation into TRF1). In kind it is biochemical. The conditions noted are these: Mean ± SEM. A general note: In an ELISA, binding on a coated surface is turned into a signal by an enzyme label.

Several values for one entry are separate records, joined by “and”; a condition that tells them apart may be missing. Equal values may be shown once. Read-outs that look alike come from different tables or passages of the source.

hTNKS1, sequence (O95271 whole entry, change not shown): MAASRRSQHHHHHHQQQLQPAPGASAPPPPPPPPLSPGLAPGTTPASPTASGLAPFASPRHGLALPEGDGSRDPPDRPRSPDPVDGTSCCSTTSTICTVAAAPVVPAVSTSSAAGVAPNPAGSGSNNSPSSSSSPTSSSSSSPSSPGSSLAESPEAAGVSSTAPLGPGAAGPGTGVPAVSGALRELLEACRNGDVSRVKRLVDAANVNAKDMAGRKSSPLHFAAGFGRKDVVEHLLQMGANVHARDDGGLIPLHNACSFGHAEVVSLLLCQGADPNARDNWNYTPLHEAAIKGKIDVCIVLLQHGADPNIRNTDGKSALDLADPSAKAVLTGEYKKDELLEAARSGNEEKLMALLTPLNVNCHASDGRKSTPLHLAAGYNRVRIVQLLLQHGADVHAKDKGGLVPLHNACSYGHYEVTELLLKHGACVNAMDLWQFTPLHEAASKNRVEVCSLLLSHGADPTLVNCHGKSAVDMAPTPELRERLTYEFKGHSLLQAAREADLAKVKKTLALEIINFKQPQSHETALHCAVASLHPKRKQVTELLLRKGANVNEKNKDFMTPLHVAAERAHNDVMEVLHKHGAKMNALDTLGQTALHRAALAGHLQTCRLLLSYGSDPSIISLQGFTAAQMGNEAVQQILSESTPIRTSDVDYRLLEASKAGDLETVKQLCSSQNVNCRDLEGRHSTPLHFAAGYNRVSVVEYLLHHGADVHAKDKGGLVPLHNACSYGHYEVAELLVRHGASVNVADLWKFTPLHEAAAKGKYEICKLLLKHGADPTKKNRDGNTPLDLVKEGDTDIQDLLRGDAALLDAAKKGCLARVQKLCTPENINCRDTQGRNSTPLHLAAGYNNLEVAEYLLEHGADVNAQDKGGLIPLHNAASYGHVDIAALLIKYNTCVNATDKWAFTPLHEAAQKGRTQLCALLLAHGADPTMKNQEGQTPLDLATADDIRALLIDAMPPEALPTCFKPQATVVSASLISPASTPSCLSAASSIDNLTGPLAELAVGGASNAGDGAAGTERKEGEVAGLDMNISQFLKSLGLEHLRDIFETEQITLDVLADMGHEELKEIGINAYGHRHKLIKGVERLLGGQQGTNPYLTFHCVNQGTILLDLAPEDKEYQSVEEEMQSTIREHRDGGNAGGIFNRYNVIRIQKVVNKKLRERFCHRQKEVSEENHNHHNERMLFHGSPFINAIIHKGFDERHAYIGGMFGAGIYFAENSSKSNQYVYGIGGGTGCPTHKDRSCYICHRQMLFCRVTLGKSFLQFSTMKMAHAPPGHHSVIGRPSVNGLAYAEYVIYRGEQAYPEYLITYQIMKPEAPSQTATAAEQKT

For `CN1CCCc2c1nc(N1CCN(Cc3ncccn3)CC1)[nH]c2=O` [Example 1, 8-Methyl-2-[4-(pyrimidin-2-ylmethyl)piperazin-1-yl]-3,5,6,7-tetrahydropyrido[2,3-d]pyrimidin-4-one], the inhibition (usually the drop in the measured response relative to a control, in per cent) at 0.03 µM in the test with Capan-2 cells is -20.8%; with A549 cells, 25.5%; with HPAF-II cells, 2.44%. Besides, the inhibition at 0.11 µM amounted to 18% in the test with Capan-2 cells, 46.5% in the test with A549 cells and 40.5% in the test with HPAF-II cells. For the same molecule, the inhibition at 0.33 µM turned out to be 55.9% with Capan-2 cells, 54.2% with A549 cells and 61.6% with HPAF-II cells. Moreover, the figures for the inhibition at 1 µM in the test on Capan-2 cells, with A549 cells and with HPAF-II cells were 63.9%, 74.3% and 85.2%, respectively. Also, the inhibition at 3 µM in the test on Capan-2 cells came to 70.7%; in the test with A549 cells, 72.1%; in the test on HPAF-II cells it was 88.2%. Further, the IC50 (in general, the point on the concentration scale where inhibition reaches its midpoint) in test [1] worked out at 13.2 nM. Further, the “Average Number of polyps per Animal” value in test [2] is “statistically significant lower number of tumors and 4.3 ± 0.70”. For the same molecule, the EC50 (as a rule, the concentration that produces a half-maximal response) in test [3] is 65.9 nM. Moreover, the “% Inhibition of Colony Formation” value in the test with Panc 04.03 cells (Panc 04.03, 0.03 μM) is recorded as −34.35%; in the test on Panc 04.03 cells (Panc 04.03, 0.11 μM), 51.39%; in the test on Panc 04.03 cells (Panc 04.03, 0.33 μM), 92.79%; in the test with Panc 04.03 cells (Panc 04.03, 1 μM) it was 92.51%; in the test with Panc 04.03 cells (Panc 04.03, 3 μM), 90.03%.
Regarding `CC(c1ncc(F)cn1)N1CCN(c2nc3c(c(=O)[nH]2)CCCN3C)CC1` (stereo not drawn) [Example 5], the IC50 on hTNKS1 came out at 85.2 nM.
